Data on eleven compounds can be found in ChEMBL document CHEMBL1153684, “Antiinflammatory -benzeneethanamines. III” (Bioorg Med Chem Lett, 1993).

Assay [1] addresses T1, Polyunsaturated fatty acid 5-lipoxygenase (Rattus norvegicus, UniProt P12527).
T1 sequence (P12527 whole entry): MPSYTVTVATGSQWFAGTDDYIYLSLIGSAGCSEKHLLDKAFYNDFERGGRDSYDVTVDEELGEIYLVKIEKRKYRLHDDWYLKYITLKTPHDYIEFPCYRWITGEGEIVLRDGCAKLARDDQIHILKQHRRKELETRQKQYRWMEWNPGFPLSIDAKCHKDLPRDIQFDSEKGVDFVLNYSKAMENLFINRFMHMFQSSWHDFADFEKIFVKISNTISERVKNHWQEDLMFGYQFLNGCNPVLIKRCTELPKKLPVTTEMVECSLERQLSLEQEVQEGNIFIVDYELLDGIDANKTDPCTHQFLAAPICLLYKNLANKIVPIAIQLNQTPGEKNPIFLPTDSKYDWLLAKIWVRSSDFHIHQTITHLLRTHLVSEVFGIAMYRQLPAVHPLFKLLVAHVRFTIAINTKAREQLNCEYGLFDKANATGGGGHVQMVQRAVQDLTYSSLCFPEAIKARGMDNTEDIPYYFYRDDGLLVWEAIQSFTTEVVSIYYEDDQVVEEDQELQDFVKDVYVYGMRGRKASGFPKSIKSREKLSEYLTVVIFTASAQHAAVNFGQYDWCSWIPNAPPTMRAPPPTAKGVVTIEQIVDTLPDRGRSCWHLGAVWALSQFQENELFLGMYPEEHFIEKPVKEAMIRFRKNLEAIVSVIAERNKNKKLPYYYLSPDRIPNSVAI
Description: Inhibition of rat basophilic leukemia cell 5-lipoxygenase.

In assay [2] the target is Phospholipase A2 (Rattus norvegicus, UniProt P04055). The assay is described as follows: Inhibitory activity against polymorphonuclear cell phospholipase-A2 in rat.
Sequence of Phospholipase A2 (P04055 whole entry): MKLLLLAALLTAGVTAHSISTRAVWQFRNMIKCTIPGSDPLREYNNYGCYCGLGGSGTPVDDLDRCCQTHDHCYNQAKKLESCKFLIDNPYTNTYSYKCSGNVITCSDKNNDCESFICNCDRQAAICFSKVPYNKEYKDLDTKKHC
Assay [3] relates to Rattus norvegicus. Description: Compound was tested for its oral antiinflammatory activity in the rat carrageenan paw edema assay (CAR). In kind it is functional.
The species named for assay [4] is Mus musculus. Description: Compound was tested for its oral antiinflammatory activity in the mouse contact sensitivity assay (CON SEN). In kind it is functional.
The test system of assay [5] is Mus musculus. The assay is described as follows: Percent inhibition for its antiinflammatory activity in the tetradecanoyl phorbol acetate mouse ear edema assay (TPA EAR); Inhibition at 100 […]. In kind it is functional.
Assay [6] concerns Mus musculus. The assay is described as follows: Compound was tested for its oral antiinflammatory activity in the mouse contact sensitivity assay (CON SEN) at the specified dose, activity expressed as % inhibition at 50 mg/Kg. In kind it is functional.
The subject of assay [7] is Rattus norvegicus. Description: Compound was tested for its antiinflammatory activity in the rat established adjuvant arthritis paw edema assay (EST ADJ ARTH), after oral administration. In kind it is functional.
Assay [8] has as its system Rattus norvegicus. Description: Percent inhibition for its antiinflammatory activity in the rat carrageenan paw edema assay (CAR), % inhibition at 50 mg/Kg. The format is functional.

Regarding `Cl.NCC(CCCSc1ccc2ccccc2c1)c1ccc(F)cc1` (stereo not given), the IC50 (in general, the concentration at which inhibition is half-maximal) was determined as 23 µM in assay [1] and 14 µM in assay [2]. In assay [3], this compound displayed an ED30 above 153.6 µM/kg.

As for `Cc1ccc(SCCCCCC(CN)c2ccc(F)cc2)cc1.Cl` (stereo not given), the IC50 in assay [1] was 35 µM; in assay [2] it was 6.6 µM. The ED30 in assay [3] was 117.7 µM/kg.

With `Cl.NCC(CCCCSc1ccc2ccccc2c1)c1ccc(F)cc1` (stereo not given), the results for the IC50 in assay [1] and in assay [2] were 130 µM and 2.4 µM, respectively. This compound also showed an ED30 in assay [3] of 171.3 µM/kg.

Take `Cc1ccc(SCCCCC(CN)c2ccc(F)cc2)cc1.Cl` (stereo not given): the values for the IC50 in assay [1] and in assay [2] were 9.5 µM and 5.5 µM, respectively. The ED35 in assay [4] stood at 8.9 mg/kg. Besides, in assay [5], the Inhibition (commonly the drop in the measured response relative to a control, in per cent) stood at 37%. In addition, the results for the inhibition in vivo at 50 mg/kg in assay [6] and in assay [8] were 51.2% and 59%, respectively. In addition, the ED30 in assay [3] came out at 1.4 µM/kg; in assay [3] (Rattus norvegicus, po, read-out: ED30) it was 0.51 mg/kg. For the same compound, the ED50 (usually the dose at which the effect has come halfway, by size or by number of responders) in assay [7] is 50 mg/kg.

As to `CC(C)(C)c1ccc(SCCCCC(CN)c2ccc(F)cc2)cc1.Cl` (stereo not given), the results for the half-inhibitory concentration (IC50) in assay [1] and in assay [2] were 230 µM and 4.8 µM, respectively. Also, the ED30 in assay [3] came to 153.8 µM/kg.

As to `Cc1ccc(SCCCC(CN)c2ccc(F)cc2)cc1.Cl` (stereo in doubt), the IC50 in assay [1] amounted to 75 µM; in assay [2], 54 µM. For the same compound, the ED30 in assay [3] is above 172.8 µM/kg.

Regarding `Cc1ccc(SCCCC(CN)c2ccc(F)cc2)cc1.Cl` (stereo in doubt; 2), the values for the IC50 in assay [1] and in assay [2] were 38 µM and 28.3 µM, respectively. Moreover, in assay [3], the ED30 is 50 µM/kg.

`NC1=NN(c2cccc(C(F)(F)F)c2)CC1` [BW-755C] returned an IC50 in assay [2] above 25 µM.

Regarding `C[C@@H]1C[C@H]2[C@@H]3CCC4=CC(=O)C=C[C@]4(C)[C@@]3(F)[C@@H](O)C[C@]2(C)[C@@]1(O)C(=O)CO` [DEXAMETHASONE], the figures for the IC50 in assay [1] and in assay [2] were above 25 µM and above 750 µM, respectively. The same compound yielded an ED30 in assay [3] below 2.5 µM/kg.

The compound `COc1ccc2c(c1)c(CC(=O)O)c(C)n2C(=O)c1ccc(Cl)cc1` [INDOMETHACIN] had an IC50 in assay [1] above 250 µM. In assay [3], this compound gave an ED30 of 2.8 µM/kg.

In turn, `CCN(CC)CCCC(C)Nc1c2ccc(Cl)cc2nc2ccc(OC)cc12` (stereo not given) [QUINACRINE] showed an IC50 in assay [2] of 100 µM. This compound also registered an ED30 in assay [3] of 5.8 µM/kg.
